In the supplement of paper PMC10307832:

Legend:
Assay in all cases: relative viability (nuclei count vs DMSO), 5 days (fraction); higher = more cells survive
Tivantinib + Vorinostat = compound: O=C1NC(=O)[C@@H](c2cn3c4c(cccc24)CCC3)[C@@H]1c1c[nH]c2ccccc12 [Tivantinib] + O=C(CCCCCCC(=O)Nc1ccccc1)NO [Vorinostat] (partner 1 µM)
Procedure, shortened: (§1)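 Medians of duplicate plates are given as relative viability. That measure is the nuclei count in treated wells divided by the count in vehicle wells. Counts were taken on 4× images of lung cancer cell lines in 1536-well plates, 5 days after pin-tool dosing the day after seeding with one drug alone or a fixed anchor-drug dose plus five library-drug doses (not always all listed) in √10 steps.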

Crenolanib + Alpelisib = compound: CC1(COc2ccc3c(c2)ncn3-c2ccc3cccc(N4CCC(N)CC4)c3n2)COC1 [Crenolanib] + Cc1nc(NC(=O)N2CCC[C@H]2C(N)=O)sc1-c1ccnc(C(C)(C)C(F)(F)F)c1 [Alpelisib] (partner 2 µM)
Procedure, shortened: as §1

Crenolanib + Phenformin = compound: CC1(COc2ccc3c(c2)ncn3-c2ccc3cccc(N4CCC(N)CC4)c3n2)COC1 [Crenolanib] + N=C(N)NC(=N)NCCc1ccccc1 [Phenformin] (partner 250 µM)
Procedure, shortened: as §1

Crenolanib + Trametinib = compound: CC1(COc2ccc3c(c2)ncn3-c2ccc3cccc(N4CCC(N)CC4)c3n2)COC1 [Crenolanib] + CC(=O)Nc1cccc(-n2c(=O)n(C3CC3)c(=O)c3c(Nc4ccc(I)cc4F)n(C)c(=O)c(C)c32)c1 [Trametinib] (partner 0.02 µM)
Procedure, shortened: as §1

Cell Line | relative viability (Tivantinib + Vorinostat; first compound 0.01 µM) | relative viability (Tivantinib + Vorinostat; first compound 0.03162 µM) | relative viability (Tivantinib + Vorinostat; first compound 0.1 µM) | relative viability (Tivantinib + Vorinostat; first compound 0.3162 µM) | relative viability (Crenolanib + Alpelisib; first compound 0.01 µM) | relative viability (Crenolanib + Alpelisib; first compound 0.03162 µM) | relative viability (Crenolanib + Alpelisib; first compound 0.1 µM) | relative viability (Crenolanib + Alpelisib; first compound 0.3162 µM) | relative viability (Crenolanib + Alpelisib; first compound 1 µM) | relative viability (Crenolanib + Phenformin; first compound 0.01 µM) | relative viability (Crenolanib + Phenformin; first compound 0.03162 µM) | relative viability (Crenolanib + Phenformin; first compound 0.1 µM) | relative viability (Crenolanib + Phenformin; first compound 0.3162 µM) | relative viability (Crenolanib + Phenformin; first compound 1 µM) | relative viability (Crenolanib + Trametinib; first compound 0.01 µM) | relative viability (Crenolanib + Trametinib; first compound 0.03162 µM) | relative viability (Crenolanib + Trametinib; first compound 0.1 µM) | relative viability (Crenolanib + Trametinib; first compound 0.3162 µM) | relative viability (Crenolanib + Trametinib; first compound 1 µM)
201T | 0.894 | 0.835 | 0.898 | 0.907 | 1.01 | 1.02 | 0.998 | 1.05 | 1.05 | 0.438 | 0.446 | 0.438 | 0.446 | 0.435 | 0.703 | 0.703 | 0.688 | 0.722 | 0.745
A549 |  |  |  |  | 0.808 | 0.795 | 0.743 | 0.798 | 0.747 | 0.193 | 0.185 | 0.165 | 0.103 | 0.145 |  |  |  |  | 
A-427 | 0.859 | 0.938 | 0.842 | 0.85 | 1.06 | 1.1 | 1.02 | 1.12 | 0.977 | 0.366 | 0.372 | 0.311 | 0.255 | 0.244 | 0.831 |  | 0.755 | 0.818 | 0.747
ABC-1 | 1.44 | 1.32 | 1.01 | 1.21 | 1.06 | 1.13 | 0.772 | 0.999 | 0.898 | 0.21 | 0.265 | 0.22 | 0.261 | 0.257 |  |  |  |  | 
BEN | 0.591 | 0.566 | 0.528 | 0.515 | 0.917 | 0.895 | 0.904 | 0.972 | 0.97 | 0.259 | 0.235 | 0.267 | 0.255 | 0.271 | 1.14 | 1.06 | 1.09 | 0.998 | 1.15
CAL-12T | 0.67 | 0.874 | 0.74 | 0.568 | 1.33 | 1.12 | 1.21 | 1.49 | 1.2 | 0.533 | 0.575 | 0.545 | 0.598 | 0.538 | 0.466 | 0.345 | 0.372 | 0.347 | 0.294
COR-L23 | 0.528 | 0.509 | 0.426 | 0.608 | 0.854 | 0.78 | 0.602 | 0.966 | 0.731 | 0.444 | 0.417 | 0.47 | 0.427 | 0.397 | 0.58 | 0.53 | 0.418 | 0.606 | 0.552
COR-L 105 | 0.89 | 0.786 | 0.722 | 0.771 | 1.02 | 1.25 | 0.811 | 1.03 | 1.02 | 0.625 | 0.474 | 0.497 | 0.5 | 0.547 | 0.442 | 0.407 | 0.491 | 0.416 | 0.547
Calu-6 |  |  |  |  | 1.01 | 0.92 | 1 | 1.17 | 1.12 |  |  |  |  |  |  |  |  |  | 
ChaGo-K-1 | 0.76 | 0.704 | 0.704 | 0.717 |  |  |  |  |  | 0.533 | 0.495 | 0.536 | 0.42 | 0.497 | 0.877 | 0.895 | 0.868 | 0.916 | 0.846
EBC-1 |  |  |  |  | 0.89 | 0.78 | 0.868 | 0.798 | 0.845 |  |  |  |  |  |  |  |  |  | 
